Tested on: authentic SARS-CoV-2 Delta variant
Conditions: 48 h

CC[C@H](C)[C@H](NC(=O)[C@H](C)NC(=O)[C@H](CCC(=O)O)NC(=O)[C@H](CCC(=O)O)NC(=O)[C@H](CC(C)C)NC(=O)[C@H](CCCCN)NC(=O)[C@H](CCCCN)NC(=O)[C@H](CCSC)NC(=O)[C@H](CCC(=O)O)NC(=O)[C@H](Cc1ccc(O)cc1)NC(=O)[C@H](CCC(=O)O)NC(=O)[C@H](CC(C)C)NC(=O)[C@H](CC(=O)O)NC(=O)[C@H](CC(C)C)NC(=O)[C@H](Cc1ccccc1)NC(=O)[C@@H](NC(=O)[C@@H](NC(=O)[C@H](CC(N)=O)NC(=O)[C@@H](NC(=O)[C@H](CCC(N)=O)NC(=O)[C@H](CC(=O)O)NC(=O)[C@H](CC(C)C)NC(=O)[C@@H](N)CO)[C@@H](C)CC)C(C)C)[C@@H](C)O)C(=O)N[C@@H](CCCCN)C(=O)N[C@@H](CCCCN)C(=O)N[C@@H](CC(C)C)C(=O)N[C@@H](CCC(=O)O)C(=O)N[C@@H](CCC(=O)O)C(=O)N[C@@H](CO)C(=O)N[C@@H](Cc1ccc(O)cc1)C(=O)N[C@H](C(=O)N[C@@H](CC(=O)O)C(=O)N[C@@H](CC(C)C)C(=O)N[C@@H](CCCCN)C(=O)N[C@@H](CCC(=O)O)C(=O)N[C@@H](CC(C)C)C(=O)O)[C@@H](C)CC [EK1]
IC50: 2860 nM
